SMILES strings stand for the structures.

The first assay relates to Escherichia coli ATCC 25922. Put plainly: Minimum inhibitory concentration (MIC), CLSI broth micro-dilution, E. coli. In kind it is cell-based. The settings on record: Escherichia coli, ATCC25922, 22 h, Table 6, cation adjusted Mueller Hinton Broth + 0.002% Tween-80, 35° C. The method, boiled down:
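Antibacterial potency is measured as MIC by the CLSI broth dilution method. Bacteria at OD600 0.0005 in Tween-80-supplemented cation-adjusted Mueller Hinton broth face ten twofold compound dilutions for 22 h at 35° C.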
Consider `CCc1nc(-c2ccc(C(C)(C)C)cc2)cc(N)c1C(=O)N[C@@H](CCN)C(=O)N(C)[C@@H]1C(=O)N[C@@H](C)C(=O)N[C@H](C(=O)NCC#N)Cc2ccc(OCCN)c(c2)-c2cc1ccc2OCCN` (racemic) [Compound 546, rac-(8S,11S,14S)-3,18-bis(2-aminoethoxy)-N-(cyanomethyl)-11-methyl-14-[methyl-[rac-(2S)-4-amino-2-[[4-amino-6-(4-tert-butylphenyl)-2-ethyl-pyridine-3-carbonyl]amino]butanoyl]amino]-10,13-dioxo-9,12-diazatricyclo[13.3.1.12,6]icosa-1(18),2(20),3,5,15(19),16-hexaene-8-carboxamide], for which the MIC is 0.38 µM.

As for `Cc1nc(-c2ccc(C3CCCCC3)cc2)nc(C)c1C(=O)N[C@@H](CCN)C(=O)N(C)[C@@H]1C(=O)N[C@@H](C)C(=O)N[C@H](C(=O)NCC#N)Cc2ccc(OCCN)c(c2)-c2cc1ccc2OCCN` (racemic) [Compound 304, rac-(8S,11S,14S)-3,18-bis(2-aminoethoxy)-N-(cyanomethyl)-11-methyl-14-[methyl-[rac-(2S)-4-amino-2-[[2-(4-cyclohexylphenyl)-4,6-dimethyl-pyrimidine-5-carbonyl]amino]butanoyl]amino]-10,13-dioxo-9,12-diazatricyclo[13.3.1.12,6]icosa-1(18),2(20),3,5,15(19),16-hexaene-8-carboxamide], the MIC came to 0.13 µM.

Regarding `CCCCc1ccc(-c2cc(N)c(C(=O)N[C@@H](CCN)C(=O)N(C)[C@@H]3C(=O)N[C@@H](C)C(=O)N[C@H](C(=O)NCC#N)Cc4ccc(OCCN)c(c4)-c4cc3ccc4OCCN)c(C)n2)nc1` (racemic) [Compound 529, rac-(8S,11S,14S)-3,18-bis(2-aminoethoxy)-N-(cyanomethyl)-11-methyl-14-[methyl-[rac-(2S)-4-amino-2-[[4-amino-6-(5-butyl-2-pyridyl)-2-methyl-pyridine-3-carbonyl]amino]butanoyl]amino]-10,13-dioxo-9,12-diazatricyclo[13.3.1.12,6]icosa-1(18),2(20),3,5,15(19),16-hexaene-8-carboxamide], the MIC stood at 4 µM.

Take `Cc1cc(-c2ccc(C(C)(C)C)cc2)cc(C)c1C(=O)N[C@@H](CCN)C(=O)N(C)[C@@H]1C(=O)N[C@@H](C)C(=O)N[C@H](C(=O)NCC#N)Cc2ccc(O)c(c2)-c2cc1ccc2OCCN` (racemic) [Compound 541, rac-(8S,11S,14S)-18-(2-aminoethoxy)-N-(cyanomethyl)-3-hydroxy-11-methyl-14-[methyl-[rac-(2S)-4-amino-2-[[4-(4-tert-butylphenyl)-2,6-dimethyl-benzoyl]amino]butanoyl]amino]-10,13-dioxo-9,12-diazatricyclo[13.3.1.12,6]icosa-1(18),2(20),3,5,15(19),16-hexaene-8-carboxamide]: the MIC turned out to be 0.75 µM.

Staying with this assay, now noted: Escherichia coli, ATCC25922, 22 h, Table 7, cation adjusted Mueller Hinton Broth + 0.002% Tween-80, 35° C.
Take `Cc1nc(-c2ccc(OC3CCCCC3)cc2)nc(C)c1C(=O)N[C@@H](CCN)C(=O)N(C)[C@@H]1C(=O)N[C@@H](C)C(=O)N[C@H](C(=O)NCC#N)Cc2ccc(OC[C@H](O)CN)c(c2)-c2cc1ccc2OC[C@H](O)CN` (racemic) [Compound 568, rac-(8S,11S,14S)-N-(cyanomethyl)-11-methyl-14-[methyl-[rac-(2S)-4-amino-2-[[2-[4-(cyclohexoxy)phenyl]-4,6-dimethyl-pyrimidine-5-carbonyl]amino]butanoyl]amino]-10,13-dioxo-3,18-bis[rac-(2R)-3-amino-2-hydroxy-propoxy]-9,12-diazatricyclo[13.3.1.12,6]icosa-1(18),2(20),3,5,15(19),16-hexaene-8-carboxamide]: the MIC is 0.063 µM.

For the compound `Cc1nc(-c2ccc(C(C)(C)C)cc2)nc(C)c1C(=O)N[C@@H](CCN)C(=O)N(C)[C@@H]1C(=O)N[C@@H](C)C(=O)N[C@H](C(=O)NCC#N)Cc2ccc(O)c(c2)-c2cc1ccc2OC1CCNCC1` (racemic) [Compound 608, rac-(8S,11S,14S)-N-(cyanomethyl)-3-hydroxy-11-methyl-14-[methyl-[rac-(2S)-4-amino-2-[[2-(4-tert-butylphenyl)-4,6-dimethyl-pyrimidine-5-carbonyl]amino]butanoyl]amino]-10,13-dioxo-18-(4-piperidyloxy)-9,12-diazatricyclo[13.3.1.12,6]icosa-1(18),2(20),3,5,15(19),16-hexaene-8-carboxamide], the MIC was 0.38 µM.

With `Cc1nc(-c2ccc(OC3CCCCC3)cc2)nc(C)c1C(=O)N[C@@H](CNS(N)(=O)=O)C(=O)N[C@@H]1C(=O)N[C@@H](C)C(=O)N[C@H](C(=O)NCC#N)Cc2ccc(OCCN)c(c2)-c2cc1ccc2OCCN` (racemic) [Compound 573, rac-(8S,11S,14S)-3,18-bis(2-aminoethoxy)-N-(cyanomethyl)-11-methyl-10,13-dioxo-14-[[rac-(2S)-2-[[2-[4-(cyclohexoxy)phenyl]-4,6-dimethyl-pyrimidine-5-carbonyl]amino]-3-(sulfamoylamino)propanoyl]amino]-9,12-diazatricyclo[13.3.1.12,6]icosa-1(18),2(20),3,5,15(19),16-hexaene-8-carboxamide], the MIC is 0.5 µM.

Turning to `Cc1nc(-c2ccc(C(C)(C)C)cc2)nc(C)c1C(=O)N[C@@H](CCN)C(=O)N(C)[C@@H]1C(=O)N[C@@H](C)C(=O)N[C@H](C(=O)NCC#N)Cc2ccc(O)c(c2)-c2cc1ccc2OCC(CN)CN` (racemic) [Compound 611, rac-(8S,11S,14S)-18-[3-amino-2-(aminomethyl)propoxy]-N-(cyanomethyl)-3-hydroxy-11-methyl-14-[methyl-[rac-(2S)-4-amino-2-[[2-(4-tert-butylphenyl)-4,6-dimethyl-pyrimidine-5-carbonyl]amino]butanoyl]amino]-10,13-dioxo-9,12-diazatricyclo[13.3.1.12,6]icosa-1(18),2(20),3,5,15(19),16-hexaene-8-carboxamide], the minimum inhibitory concentration (MIC) amounted to 0.19 µM.

The assay is the same for the next values; noted with them: Escherichia coli, ATCC25922, Table 6, cation adjusted Mueller Hinton Broth + 0.002% Tween-80, 35° C., 22 hours.
For the compound `C[C@@H]1NC(=O)[C@@H](N(C)C(=O)[C@H](CCN)NC(=O)N2CCC(c3ccc(C(C)(C)C)cc3)CC2)c2ccc(OCCN)c(c2)-c2cc(ccc2OCCN)C[C@@H](C(=O)NCC#N)NC1=O` (racemic) [Compound 390, rac-(8S,11S,14S)-3,18-bis(2-aminoethoxy)-N-(cyanomethyl)-11-methyl-14-[methyl-[rac-(2S)-4-amino-2-[[4-(4-tert-butylphenyl)piperidine-1-carbonyl]amino]butanoyl]amino]-10,13-dioxo-9,12-diazatricyclo[13.3.1.12,6]icosa-1(18),2(20),3,5,15(19),16-hexaene-8-carboxamide], the MIC is 8 µM.

Take `Cc1c(C(=O)N[C@@H](CCN)C(=O)N(C)[C@@H]2C(=O)N[C@@H](C)C(=O)N[C@H](C(=O)NCC#N)Cc3ccc(OCCN)c(c3)-c3cc2ccc3OCCN)cnn(-c2ccc(C(C)(C)C)cc2)c1=O` (racemic) [Compound 387, rac-(8S,11S,14S)-3,18-bis(2-aminoethoxy)-N-(cyanomethyl)-11-methyl-14-[methyl-[rac-(2S)-4-amino-2-[[1-(4-tert-butylphenyl)-5-methyl-6-oxo-pyridazine-4-carbonyl]amino]butanoyl]amino]-10,13-dioxo-9,12-diazatricyclo[13.3.1.12,6]icosa-1(18),2(20),3,5,15(19),16-hexaene-8-carboxamide]: the MIC was 8 µM.

In the case of `Cc1nc(-c2ccc(OCC(C)(C)C)cc2)ncc1C(=O)N[C@@H](CCN)C(=O)N(C)[C@@H]1C(=O)N[C@@H](C)C(=O)N[C@H](C(=O)NCC#N)Cc2ccc(OCCN)c(c2)-c2cc1ccc2OCCN` (racemic) [Compound 252, rac-(8S,11S,14S)-3,18-bis(2-aminoethoxy)-N-(cyanomethyl)-11-methyl-14-[methyl-[rac-(2S)-4-amino-2-[[2-[4-(2,2-dimethylpropoxy)phenyl]-4-methyl-pyrimidine-5-carbonyl]amino]butanoyl]amino]-10,13-dioxo-9,12-diazatricyclo[13.3.1.12,6]icosa-1(18),2(20),3,5,15(19),16-hexaene-8-carboxamide], the MIC was determined as 0.097 µM.

The same assay, now with this note: Escherichia coli, ATCC25922, Table 7, cation adjusted Mueller Hinton Broth + 0.002% Tween-80, 35° C., 22 hours.
`Cc1nc(-c2ccc(C(C)(C)C)cc2)nc(C)c1C(=O)N[C@@H](CNS(N)(=O)=O)C(=O)N(C)[C@@H]1C(=O)N[C@@H](C)C(=O)N[C@H](C(=O)NCC#N)Cc2ccc(OCCN)c(c2)-c2cc1cc(OCCNC(=N)N)c2O` (racemic) [Compound 590, rac-(8S,11S,14S)-3-(2-aminoethoxy)-N-(cyanomethyl)-17-(2-guanidinoethoxy)-18-hydroxy-11-methyl-14-[methyl-[rac-(2S)-2-[[2-(4-tert-butylphenyl)-4,6-dimethyl-pyrimidine-5-carbonyl]amino]-3-(sulfamoylamino)propanoyl]amino]-10,13-dioxo-9,12-diazatricyclo[13.3.1.12,6]icosa-1(18),2(20),3,5,15(19),16-hexaene-8-carboxamide]: the MIC is 0.38 µM.

`Cc1nc(-c2ccc(C(C)(C)C)cc2)nc(C)c1C(=O)N[C@@H](CCN)C(=O)N(C)[C@@H]1C(=O)N[C@@H](C)C(=O)N[C@H](C(=O)O)Cc2cc(OCCN)c(O)c(c2)-c2cc1ccc2OCCN` (racemic) [Compound 563, rac-(8S,11S,14S)-4,18-bis(2-aminoethoxy)-3-hydroxy-11-methyl-14-[methyl-[rac-(2S)-4-amino-2-[[2-(4-tert-butylphenyl)-4,6-dimethyl-pyrimidine-5-carbonyl]amino]butanoyl]amino]-10,13-dioxo-9,12-diazatricyclo [13.3.1.12,6]icosa-1(18),2,4,6(20),15(19), 16-hexaene-8-carboxylic acid]: the MIC was determined as 0.25 µM.

The values above are taken from patent US20260274892A1, “MACROCYCLIC BROAD SPECTRUM ANTIBIOTICS” (RQx Pharmaceuticals, Inc., priority 2017, published 2026).
